# Laboratory results taken from patent US9689244B2, “Process for water wetting oil-wet surfaces” (BASF SE, priority 2012, dated 2017).
# Key:
# Format in all cases: physicochemical
# [1] = Cloud point of conventional surfactants in saline water; conditions: 1% in water having a salinity of 50.000 ppm NaCl
# Method: For comparative purposes, two conventional surfactants were tested at a concentration of 1% in water having a salinity of 50.000 ppm NaCl and in the usual manner their cloud point was determined.
# [2] = Modification of the wettability: contact angle of oil on oil wet polyethylene platelets; conditions: for Contact angle: dodecane
# Method: Polyethylene platelets (3 cm×2 cm) were use as hydrophobic model surfaces for oil wet rocks. As a first step, 5 μl decane or 5 μl dodecane were applied to the polyethylene platelets. The hydrophobic liquids spread on the hydrophobic surface. The contact angle between the oil and the polyethylene surface was measured using a usual contact angle measuring device (DataPhysics) and consequently a value of 0° was obtained. The oil wet platelets were submerged into an aqueous solution of 1 g/l by weight of the compound to be tested. […] The contact angle between oil and the polyethylene surface was measured as function of time. Furthermore, it was inspected visually whether oil droplets became detached from the surface.
# [3] = Surface tension (DuNouy ring method) and critical micelle formation concentration
# Method: The surface tension was measured as a function of the concentration of the surface active components using the DuNouy ring method (according to Din 53914). The critical micelle formation concentration (cmc) was derived in the usual manner from the measurement graph.
# The salts used were NaCl and CaCl2 at a weight ratio of 9:1 NaCl/CaCl2.
# [4] = Interfacial tension between aqueous solution and oil phase (spinning drop tensiometer)
# Method: The interfacial tension between aqueous solutions of tested compounds and an oil phase were measured with a spinning drop tensiometer (DataPhysics). As the composition of crude oils may vary decane, dodecane, and hexadecane were used as model oils in order to study the range of application of the tested compounds.
# [5] = 25 °C, brine NaCl/CaCl2 (9:1) 10,000 ppm
# [6] = 25 °C, brine NaCl/CaCl2 (9:1) 100,000 ppm
# [7] = 60 °C, brine NaCl/CaCl2 (9:1) 10,000 ppm
# [8] = 60 °C, brine NaCl/CaCl2 (9:1) 100,000 ppm
Cloud point [1] [°C],Substance,"ST At 1 g/l ([3]; 25 °C, brine 10,000 ppm) [mN/m]","ST At 1 g/l ([3]; 25 °C, brine 100,000 ppm) [mN/m]","cmc [3, 5] [g/L]","cmc [3, 6] [g/L]","ST At 1 g/l ([3]; 60 °C, brine 10,000 ppm) [mN/m]","ST At 1 g/l ([3]; 60 °C, brine 100,000 ppm) [mN/m]","cmc [3, 7] [g/L]","cmc [3, 8] [g/L]","IFT after 60 min, 1 g/l of sample in aqueous phase, decane ([4]; 25 °C, brine 10,000 ppm) [mN/m]","IFT after 60 min, 1 g/l of sample in aqueous phase, decane ([4]; 25 °C, brine 100,000 ppm) [mN/m]","IFT after 60 min, 1 g/l of sample in aqueous phase, decane ([4]; 60 °C, brine 10,000 ppm) [mN/m]","IFT after 60 min, 1 g/l of sample in aqueous phase, decane ([4]; 60 °C, brine 100,000 ppm) [mN/m]","IFT after 60 min, 1 g/l of sample in aqueous phase, docecane ([4]; 25 °C, brine 10,000 ppm) [mN/m]","IFT after 60 min, 1 g/l of sample in aqueous phase, docecane ([4]; 60 °C, brine 10,000 ppm) [mN/m]","IFT after 60 min, 1 g/l of sample in aqueous phase, hexadecane ([4]; 25 °C, brine 10,000 ppm) [mN/m]","IFT after 60 min, 1 g/l of sample in aqueous phase, hexadecane ([4]; 60 °C, brine 10,000 ppm) [mN/m]",further results
87,C16/18-alcohol+80 EO,,,,,,,,,,,,,,,,,
,Saccharose* 20 EO monoester with C16/C18 fatty acid [Compound S1],33.7,34.5,0.03,0.02,29.6,29.1,0.03,0.02,3.9,2.4,0.45,1.2,2.9,0.19,4.0,0.55,"Contact angle ([2]; 25° C., brine 10,000 ppm + 1 g/l S1, time 0 min): 6 °; Contact angle ([2]; 25° C., brine 10,000 ppm + 1 g/l S1, time 30 min): 13 °; Contact angle ([2]; 25° C., brine 10,000 ppm + 1 g/l S1, time 45 min): 14 °; Contact angle ([2]; 25° C., brine 10,000 ppm + 1 g/l S1, time 60 min): 17 °; Contact angle ([2]; 25° C., brine 10,000 ppm + 1 g/l S1, time 90 min): 22 °; Contact angle ([2]; 25° C., brine 10,000 ppm + 1 g/l S1, time 180 min): beginning; Contact angle ([2]; 25° C., brine 100,000 ppm + 1 g/l S1, time 0 min): 7 °; Contact angle ([2]; 25° C., brine 100,000 ppm + 1 g/l S1, time 30 min): 26 °; Contact angle ([2]; 25° C., brine 100,000 ppm + 1 g/l S1, time 45 min): 74 °; Contact angle ([2]; 25° C., brine 100,000 ppm + 1 g/l S1, time 60 min): oil already detached; Time of contact after which oil is detached from the surface ([2]; 60° C.): 2 min; Contact angle ([2]; 60° C., brine 10,000 ppm + 1 g/l S1, time 60 min): beginning; Contact angle ([2]; 60° C., brine 100,000 ppm + 1 g/l S1, time 0 min): oil already; Interfacial tension (IFT) between water and hydrocarbons of different chain lengths, change on addition of wettability modifier ([4]; hydrocarbons of different chain lengths): decreases significantly"
,Saccharose * 40 EO diester with C12/C18 fatty acid [Compound S2],34.6,34.6,0.03,0.03,27.7,28.3,0.04,0.02,2.3,2.1,0.46,0.36,2.0,0.34,2.2,0.40,
86,C13-alcohol+20 EO,,,,,,,,,,,,,,,,,
